From patent US11472811B2, “Pyrazolotriazolopyrimidine derivatives as A2A receptor antagonist” (BEIGENE, LTD., priority 2018, dated 2022)
Where two headings read alike, the source gives them in different places.

Assays:
[1] = biological target: human A2A receptor (A2AR) (Homo sapiens (Human), UniProt P29274); test: Luciferase reporter assay (HEK293-A2AR-luc2p/CRE/Hygro cells); type: cell-based; conditions: 3 nM CGS21680, 5 h incubation
How it was run: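 HEK293 cells stably expressing human A2AR and a CRE-luc2P reporter were seeded in 1% FBS with 1 U/mL adenosine deaminase. After 18 h they were stimulated 5 h with 3 nM CGS21680 plus compound (0.1–10000 nM), then luciferase luminescence was read. IC50 was taken from inhibition curves, with CGS21680 alone set as 100%.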

[2] = biological target: human adenosine A1 receptor (A1R) (Homo sapiens (Human), UniProt P30542); test: Adenosine receptor binding assay, A1 (radioligand competitive binding); conditions: membrane homogenates from CHO cells transfected with A1R, 1 nM [3H]DPCPX
Procedure: (§1) Binding affinity of test compounds to four human adenosine receptors, A1, A2A, A2B and A3 was determined in radioligand competitive binding assay (conducted by Cerep, France) using following protocols. For A1 receptor (A1R), membrane homogenates from CHO cells transfected with A1R were incubated for 60 min at 22° C. with 1 nM [3H]DPCPX in the absence or presence of the test compound in a buffer containing 50 mM Tris-HCl (pH 7.4), 5 mM MgCl2, 1 mM EDTA/Tris and 2 UI/mL ADA. For A2AR, membrane homogenates from HEK293 cells transfected with A2AR were incubated for 120 min at 22° C. with 6 nM [3H]CGS21680 in the absence or presence of the test compound in a buffer containing 50 mM Tris-HCl (pH 7.4), 10 mM MgCl2, and 2 UI/mL ADA. For A2B receptor (A2BR), membrane homogenates from HEK293 cells transfected with A2BR were incubated for 60 min at 22° C. with 5 nM [3H]CPX in the absence or presence of the test compound in a buffer containing 10 mM Hepes/Tris (pH 7), 1 mM MgCl2, and 1 mM EDTA. For A3 receptor (A3R), membrane homogenates from HEK293 cells transfected with A3R were incubated for 120 min at 22° C. with 0.15 nM [125I] AB-MECA in the absence or presence of the test compound in a buffer containing 50 mM Tris-HCl (pH 7.4), 5 mM MgCl2, 1 mM EDTA and 2 UI/mL ADA. Nonspecific binding was determined in the presence of unlabeled 1 μM DPCPX, 10 μM NECA, 100 μM NECA, and 1 μM IB-MECA in A1R, A2AR, A2BR, A3R binding assays, respectively. Following incubation, the samples are rapidly filtered and washed with ice-cold 50 mM Tris-HCl. Then filters are dried and counted for radioactivity in a scintillation counter (Topcount, Packard) using a scintillation cocktail (Microscint 0, Packard). Duplicate experiments were performed for each assay. The results are expressed as a percent inhibition of control radioligand specific binding.

[3] = biological target: human adenosine A2A receptor (A2AR) (Homo sapiens (Human), UniProt P29274); test: Adenosine receptor binding assay, A2A (radioligand competitive binding); conditions: membrane homogenates from HEK293 cells transfected with A2AR, 6 nM [3H]CGS21680
Procedure: as §1

Mouse BBB assay = type: in vivo; conditions: oral 10 mg/kg; for Brain (ng · g^−1): at 1 h
Procedure: Mice were acclimated for 1 week prior to use at 18-30 g body weight. Fasted mice were dosed orally at 10 mg/kg dose. At 1, 2 and 4 hours postdose, plasma samples from cardiac blood collected in tubes containing K2EDTA as the anticoagulant, and excised cerebral hemispheres were immediately frozen and stored at −80° C. until bioanalysis. Total concentrations of the compound were determined by LC-MS/MS. Brain homogenate concentrations were converted to brain concentrations for the calculations of brain-to-plasma ratios.

[4] = BLOQ: below limit of quantitation, Brain is 5 ng/g
[5] = limit of quantitation plasma 1 ng/ml, read-out: Plasma
[6] = BLOQ: below limit of quantitation, Brain is 5 ng/g, read-out: Brain

Sequence of human adenosine A1 receptor (A1R) (P30542 whole entry): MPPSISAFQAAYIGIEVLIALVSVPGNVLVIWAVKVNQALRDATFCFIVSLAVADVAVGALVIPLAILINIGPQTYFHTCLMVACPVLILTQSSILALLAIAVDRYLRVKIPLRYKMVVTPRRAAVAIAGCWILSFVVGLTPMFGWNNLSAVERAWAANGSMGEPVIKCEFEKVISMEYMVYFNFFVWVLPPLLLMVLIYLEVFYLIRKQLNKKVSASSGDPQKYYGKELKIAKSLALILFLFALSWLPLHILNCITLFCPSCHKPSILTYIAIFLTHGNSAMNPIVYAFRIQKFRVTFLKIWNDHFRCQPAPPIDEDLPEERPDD
Sequence of human adenosine A2A receptor (A2AR) (P29274 whole entry): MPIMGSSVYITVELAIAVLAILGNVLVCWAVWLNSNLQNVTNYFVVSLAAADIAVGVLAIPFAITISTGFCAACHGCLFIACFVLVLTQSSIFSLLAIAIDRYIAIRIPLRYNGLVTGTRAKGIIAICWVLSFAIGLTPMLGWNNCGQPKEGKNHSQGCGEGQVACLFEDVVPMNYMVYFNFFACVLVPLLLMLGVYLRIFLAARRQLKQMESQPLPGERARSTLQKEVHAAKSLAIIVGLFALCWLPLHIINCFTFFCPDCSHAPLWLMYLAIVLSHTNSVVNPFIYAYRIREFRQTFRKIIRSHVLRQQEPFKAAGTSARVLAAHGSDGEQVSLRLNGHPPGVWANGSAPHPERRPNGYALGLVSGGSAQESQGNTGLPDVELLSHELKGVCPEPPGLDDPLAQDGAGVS
Sequence of human A2A receptor (A2AR) (P29274 whole entry): as above

Row | IC50 [1] [nM] | Ki [2] [nM] | Ki [3] [nM] | Brain (ng · g^−1) (Mouse BBB assay; [4]) | concentration at 1 h (Mouse BBB assay; [5]) [ng/mL] | concentration at 1 h (Mouse BBB assay; [6]) [ng/g] | Compound
1 | 3.8 | 7.2 | 1.7 | – | – | – | Nc1nc2c(cnn2[C@H](C(=O)NCC2(O)COC2)c2ccccc2)c2nc(-c3ccco3)nn12 [Example 82B]
2 | 567 | – | – | – | – | – | C[C@](C(=O)O)(c1ccccc1)n1ncc2c1nc(N)n1nc(-c3ccco3)nc21 [Intermediate-Ib, (R)-2-(5-amino-2-(furan-2-yl)-7H-pyrazolo[4,3-e][1,2,4]triazolo[1,5-c]pyrimidin-7-yl)-2-phenylpropanoic acid]
3 | – | – | – | – | 197 | 258 | COCCOc1ccc(N2CCN(CCn3ncc4c3nc(N)n3nc(-c5ccco5)nc43)CC2)cc1 [Preladenant, reference compound]

Further lines, the compound ahead of its results:

Row | Compound | IC50 [1] [nM] | Ki [2] [nM] | Ki [3] [nM] | Brain (ng · g^−1) (Mouse BBB assay; [4]) | concentration at 1 h (Mouse BBB assay; [5]) [ng/mL] | concentration at 1 h (Mouse BBB assay; [6]) [ng/g]
4 | C[C@](C(=O)NCC1(O)COC1)(c1ccccc1)n1ncc2c1nc(N)n1nc(-c3ccco3)nc21 [Example 31B, (R)-2-(5-amino-2-(furan-2-yl)-7H-pyrazolo[4,3-e][1,2,4]triazolo[1,5-c]pyrimidin-7-yl)-N-((3-hydroxyoxetan-3-yl)methyl)-2-phenylpropanamide] | 2.3 | 180 | 1.2 | BLOQ | 177 | –
5 | C[C@](C(=O)N[C@@H]1CCC[C@@H]1O)(c1ccccc1)n1ncc2c1nc(N)n1nc(-c3ccco3)nc21 [Example 48B, (R)-2-(5-amino-2-(furan-2-yl)-7H-pyrazolo[4,3-e][1,2,4]triazolo[1,5-c]pyrimidin-7-yl)-N-((1R,2S)-2-hydroxycyclopentyl)-2-phenylpropanamide] | 1.6 | 12 | 2.2 | – | 56.3 | 8.69
6 | CC1(O)CCC(NC(=O)[C@@](C)(c2ccccc2)n2ncc3c2nc(N)n2nc(-c4ccco4)nc32)CC1 (stereo partly drawn) [Example 69B, (R)-2-(5-amino-2-(furan-2-yl)-7H-pyrazolo[4,3-e][1,2,4]triazolo[1,5-c]pyrimidin-7-yl)-(cis)-N-(4-hydroxy-4-methylcyclohexyl)-2-phenylpropanamide] | 3.9 | 540 | 1.6 | BLOQ | 29.4 | –
7 | C[C@](C(=O)N[C@H]1CC[C@@H](O)CC1)(c1ccccc1)n1ncc2c1nc(N)n1nc(-c3ccco3)nc21 [Example 76B, (R)-2-(5-amino-2-(furan-2-yl)-7H-pyrazolo[4,3-e][1,2,4]triazolo[1,5-c]pyrimidin-7-yl)-(cis)-N-(4-hydroxycyclohexyl)-2-phenylpropanamide] | 2.2 | 150 | 1.6 | BLOQ | 39.1 | –
